Assay results: ChEMBL document CHEMBL1275528, “RamA confers multidrug resistance in Salmonella enterica via increased expression of acrB, which is inhibited by chlorpromazine” (2008)
Converted amounts (≈) assume the structure as drawn.

Columns and labels:
[1] = Antimicrobial activity against Salmonella serovar Typhimurium SL1344 by broth dilution method; format: functional; settings: Salmonella enterica
[2] = Antimicrobial activity against Salmonella serovar Typhimurium SL1344 expressing ramA::aph mutant by broth dilution method; format: functional; settings: Salmonella enterica
[3] = Antimicrobial activity against Salmonella serovar Typhimurium SL1344 by broth dilution method in presence of chlorpromazine; format: functional; settings: Salmonella enterica
[4] = Antimicrobial activity against Salmonella serovar Typhimurium SL1344 expressing ramA::aph-pTRC hisA:ramA mutant by broth dilution method; format: functional; settings: Salmonella enterica
[5] = Antimicrobial activity against Salmonella serovar Typhimurium SL1344 expressing ramA::aph-pTRC hisA:ramA mutant by broth dilution method in presence of IPTG; format: functional; settings: Salmonella enterica
[6] = Antimicrobial activity against Salmonella serovar Typhimurium SL1344 expressing ramA::aph-pTRC hisA:ramA mutant by broth dilution method in presence of chlorpromzine; format: functional; settings: Salmonella enterica
[7] = Antimicrobial activity against Salmonella serovar Typhimurium SL1344 expressing acrB::aph mutant by broth dilution method; format: functional; settings: Salmonella enterica
[8] = Antimicrobial activity against Salmonella serovar Typhimurium SL1344 expressing acrD::aph mutant by broth dilution method; format: functional; settings: Salmonella enterica
[9] = Antimicrobial activity against Salmonella serovar Typhimurium SL1344 expressing acrF::aph mutant by broth dilution method; format: functional; settings: Salmonella enterica
[10] = Antimicrobial activity against Salmonella serovar Typhimurium SL1344 expressing tolC::aph mutant by broth dilution method; format: functional; settings: Salmonella enterica
[11] = Antimicrobial activity against Salmonella serovar Typhimurium SL1344 expressing marA::aph mutant by broth dilution method; format: functional; settings: Salmonella enterica
[12] = Antimicrobial activity against Salmonella serovar Typhimurium SL1344 expressing soxS::aph mutant by broth dilution method; format: functional; settings: Salmonella enterica
Salmonella typhimurium [13] = test: Antimicrobial activity against Salmonella serovar Typhimurium LT2 by broth dilution method; format: functional, Salmonella enterica subsp. enterica serovar Typhimurium; settings: Salmonella enterica
Salmonella typhimurium [14] = test: Antimicrobial activity against Salmonella serovar Typhimurium 14028S by broth dilution method; format: functional, Salmonella enterica subsp. enterica serovar Typhimurium; settings: Salmonella enterica
[15] = Antimicrobial activity against Salmonella serovar Binza 8269 by broth dilution method; format: functional, Salmonella enterica subsp. enterica serovar Binza; settings: Salmonella enterica
Salmonella enteritidis = test: Antimicrobial activity against Salmonella serovar Enteritidis 5188 by broth dilution method; format: functional, Salmonella enterica subsp. enterica serovar Enteritidis; settings: Salmonella enterica
[16] = Antimicrobial activity against Salmonella serovar Hadar by broth dilution method; format: functional, Salmonella enterica subsp. enterica serovar Hadar; settings: Salmonella enterica
[17] = Antimicrobial activity against Salmonella serovar Heidelberg 5171 by broth dilution method; format: functional, Salmonella enterica subsp. enterica serovar Heidelberg; settings: Salmonella enterica
[18] = Antimicrobial activity against Salmonella serovar Haifa 9878 by broth dilution method; format: functional, Salmonella enterica subsp. enterica serovar Haifa; settings: Salmonella enterica
[19] = Antimicrobial activity against Salmonella serovar Kedougou by broth dilution method; format: functional, Salmonella enterica subsp. enterica serovar Kedougou; settings: Salmonella enterica
[20] = Antimicrobial activity against Salmonella serovar Mbandaka 7892 by broth dilution method; format: functional, Salmonella enterica subsp. enterica serovar Mbandaka; settings: Salmonella enterica
[21] = Antimicrobial activity against Salmonella serovar Montevideo 5747 by broth dilution method; format: functional, Salmonella enterica subsp. enterica serovar Montevideo; settings: Salmonella enterica
[22] = Antimicrobial activity against Salmonella serovar Newport 129 by broth dilution method; format: functional, Salmonella enterica subsp. enterica serovar Newport; settings: Salmonella enterica
[23] = Antimicrobial activity against Salmonella serovar Virchow 5742 by broth dilution method; format: functional, Salmonella enterica subsp. enterica serovar Virchow; settings: Salmonella enterica
[24] = Antimicrobial activity against Salmonella serovar Typhimurium SL1344 assessed as ramA expression at 200 ug/ml; format: functional
[25] = Antimicrobial activity against Salmonella serovar Typhimurium SL1344 expressing acrB::aph mutant assessed as ramA expression at 200 ug/ml; format: functional
[26] = Antimicrobial activity against Salmonella serovar Typhimurium SL1344 assessed as acrB expression at 200 ug/ml; format: functional
[27] = Antimicrobial activity against Salmonella serovar Typhimurium SL1344 expressing ramA::aph mutant assessed as acrB expression at 200 ug/ml; format: functional

Compound | MIC [1] | MIC [2] | MIC [3] | MIC [4] | MIC [5] | MIC [6] | MIC [7] | MIC [8] | MIC [9] | MIC [10] | MIC [11] | MIC [12] | other results
CN(C)[C@@H]1C(O)=C(C(N)=O)C(=O)[C@@]2(O)C(O)=C3C(=O)c4c(O)cccc4[C@@](C)(O)[C@H]3C[C@@H]12 [TETRACYCLINE] | 2 µg/mL (≈ 4.5 µM) | 2 µg/mL (≈ 4.5 µM) | 0.25 µg/mL | 4 µg/mL (≈ 9 µM) | 16 µg/mL | 8 µg/mL |  |  |  |  |  |  | 
CN1CCN(CCCN2c3ccccc3Sc3ccc(C(F)(F)F)cc32)CC1 [TRIFLUOPERAZINE] | 1020 µg/mL (≈ 2510 µM) | 1020 µg/mL (≈ 2510 µM) |  |  |  |  | 64 µg/mL (≈ 157 µM) | 1020 µg/mL (≈ 2510 µM) | 1020 µg/mL (≈ 2510 µM) | 32 µg/mL (≈ 78.5 µM) | 1020 µg/mL (≈ 2510 µM) | 1020 µg/mL (≈ 2510 µM) | 
CCn1cc(C(=O)O)c(=O)c2ccc(C)nc21 [NALIDIXIC ACID] | 4 µg/mL (≈ 17.2 µM) | 4 µg/mL (≈ 17.2 µM) |  | 16 µg/mL (≈ 68.9 µM) | 64 µg/mL | 16 µg/mL |  |  |  |  |  |  | 
CC[n+]1c(-c2ccccc2)c2cc(N)ccc2c2ccc(N)cc21.[Br-] [HOMIDIUM BROMIDE] | 1020 µg/mL | 1020 µg/mL | 8 µg/mL | 2050 µg/mL | 2050 µg/mL | 512 µg/mL |  |  |  |  |  |  | MIC (Salmonella typhimurium [13]): 1020 µg/mL; MIC (Salmonella typhimurium [14]): 2050 µg/mL; MIC [15]: 1020 µg/mL; MIC (Salmonella enteritidis): 1020 µg/mL; MIC [16]: 1020 µg/mL; MIC [17]: 512 µg/mL; MIC [18]: 1020 µg/mL; MIC [19]: 512 µg/mL; MIC [20]: 1020 µg/mL; MIC [21]: 1020 µg/mL; MIC [22]: 1020 µg/mL; MIC [23]: 1020 µg/mL
CN(C)CCCN1c2ccccc2Sc2ccc(Cl)cc21 [CHLORPROMAZINE] | 512 µg/mL (≈ 1610 µM) | 256 µg/mL (≈ 803 µM) |  | 512 µg/mL (≈ 1610 µM) | 512 µg/mL |  | 32 µg/mL (≈ 100 µM) | 128 µg/mL (≈ 401 µM) | 128 µg/mL (≈ 401 µM) | 32 µg/mL (≈ 100 µM) | 256 µg/mL (≈ 803 µM) | 256 µg/mL (≈ 803 µM) | fold change (FC) [24]: 0.4; fold change (FC) [25]: 0.7; fold change (FC) [26]: 2.6; fold change (FC) [27]: 1.6
O=C(O)c1cn(C2CC2)c2cc(N3CCNCC3)c(F)cc2c1=O [CIPROFLOXACIN] | 0.03 µg/mL (≈ 0.0905 µM) | 0.03 µg/mL (≈ 0.0905 µM) | 0.008 µg/mL | 0.03 µg/mL (≈ 0.0905 µM) | 0.03 µg/mL | 0.015 µg/mL |  |  |  |  |  |  | 
CN(C)CCC=C1c2ccccc2CCc2ccccc21 [AMITRIPTYLINE] | 512 µg/mL (≈ 1850 µM) | 512 µg/mL (≈ 1850 µM) |  |  |  |  | 256 µg/mL (≈ 923 µM) | 1020 µg/mL (≈ 3690 µM) | 512 µg/mL (≈ 1850 µM) | 256 µg/mL (≈ 923 µM) | 512 µg/mL (≈ 1850 µM) | 512 µg/mL (≈ 1850 µM) | 
CN(C)c1ccc2cc3ccc(N(C)C)cc3nc2c1 [ACRIDINE ORANGE] | 512 µg/mL (≈ 1930 µM) | 256 µg/mL (≈ 965 µM) | 512 µg/mL | 256 µg/mL (≈ 965 µM) | 512 µg/mL | 512 µg/mL |  |  |  |  |  |  | 
O=C(N[C@H](CO)[C@H](O)c1ccc([N+](=O)[O-])cc1)C(Cl)Cl [CHLORAMPHENICOL] | 4 µg/mL (≈ 12.4 µM) | 4 µg/mL (≈ 12.4 µM) | 0.015 µg/mL | 8 µg/mL (≈ 24.8 µM) | 32 µg/mL | 16 µg/mL |  |  |  |  |  |  | 
CO[C@@H]1[C@@H](OC(N)=O)[C@@H](O)[C@H](Oc2ccc3c(O)c(NC(=O)c4ccc(O)c(CC=C(C)C)c4)c(=O)oc3c2C)OC1(C)C [NOVOBIOCIN] | 512 µg/mL (≈ 836 µM) | 256 µg/mL (≈ 418 µM) | 64 µg/mL | 512 µg/mL (≈ 836 µM) | 1020 µg/mL | 512 µg/mL |  |  |  |  |  |  | 
Cc1ccccc1C(OCCN(C)C)c1ccccc1 (stereo not drawn) [ORPHENADRINE] | 1020 µg/mL (≈ 3800 µM) | 1020 µg/mL (≈ 3800 µM) |  |  |  |  | 1020 µg/mL (≈ 3800 µM) | 1020 µg/mL (≈ 3800 µM) | 1020 µg/mL (≈ 3800 µM) | 1020 µg/mL (≈ 3800 µM) | 1020 µg/mL (≈ 3800 µM) | 1020 µg/mL (≈ 3800 µM) | 
CSc1ccc2c(c1)N(CCC1CCCCN1C)c1ccccc1S2 (stereo not drawn) [THIORIDAZINE] | 1020 µg/mL (≈ 2760 µM) | 1020 µg/mL (≈ 2760 µM) |  |  |  |  | 32 µg/mL (≈ 86.3 µM) | 1020 µg/mL (≈ 2760 µM) | 1020 µg/mL (≈ 2760 µM) | 32 µg/mL (≈ 86.3 µM) | 1020 µg/mL (≈ 2760 µM) | 1020 µg/mL (≈ 2760 µM) | 
Oc1cc(Cl)ccc1Oc1ccc(Cl)cc1Cl [TRICLOSAN] | 0.12 µg/mL (≈ 0.414 µM) | 0.12 µg/mL (≈ 0.414 µM) |  | 0.25 µg/mL (≈ 0.863 µM) | 1 µg/mL | 0.25 µg/mL |  |  |  |  |  |  | 
CN(C)c1ccc(C(=C2C=CC(=[N+](C)C)C=C2)c2ccc(N(C)C)cc2)cc1.[Cl-] [GENTIAN VIOLET] | 2 µg/mL | 2 µg/mL | 1 µg/mL | 2 µg/mL | 2 µg/mL | 0.5 µg/mL |  |  |  |  |  |  | 
CCn1cc(C(=O)O)c(=O)c2cc(F)c(N3CCNCC3)cc21 [NORFLOXACIN] | 0.06 µg/mL (≈ 0.188 µM) | 0.25 µg/mL (≈ 0.783 µM) | 0.008 µg/mL | 0.25 µg/mL (≈ 0.783 µM) | 0.25 µg/mL | 0.25 µg/mL |  |  |  |  |  |  | MIC (Salmonella typhimurium [13]): 0.06 µg/mL (≈ 0.188 µM); MIC (Salmonella typhimurium [14]): 0.06 µg/mL (≈ 0.188 µM); MIC [15]: 0.06 µg/mL (≈ 0.188 µM); MIC (Salmonella enteritidis): 0.06 µg/mL (≈ 0.188 µM); MIC [16]: 0.06 µg/mL (≈ 0.188 µM); MIC [17]: 0.06 µg/mL (≈ 0.188 µM); MIC [18]: 0.06 µg/mL (≈ 0.188 µM); MIC [19]: 0.06 µg/mL (≈ 0.188 µM); MIC [20]: 0.06 µg/mL (≈ 0.188 µM); MIC [21]: 0.06 µg/mL (≈ 0.188 µM); MIC [22]: 0.06 µg/mL (≈ 0.188 µM); MIC [23]: 0.06 µg/mL (≈ 0.188 µM)
